Experimental findings from patent publication US20080293646A1, “MACROLIDES” (Pfizer Inc, priority 2007, published 2008) are described below.

For one data set, the system named is M. catarrhalis. Nature of the data set: MIC, microtiter broth dilution, M. catarrhalis. The data set is classed as cell-based, Moraxella catarrhalis. Conditions: for MIC50 / MIC90: Moraxella catarrhalis. Background: Broth dilution looks for growth in wells or tubes with falling amounts of substance.
Another data set relates to S. pneumoniae ermB. Nature of the data set: MIC, microtiter broth dilution, S. pneumoniae ermB isolates. The data set is classed as cell-based, Streptococcus pneumoniae. The conditions noted are these: for MIC50 / MIC90: Streptococcus pneumoniae.
In the next data set the test system is S. pneumoniae mefA. Nature of the data set: MIC, microtiter broth dilution, S. pneumoniae mefA isolates. It is filed as cell-based, Streptococcus pneumoniae. The conditions noted are these: for MIC50 / MIC90: Streptococcus pneumoniae.
The test system of the next data set is S. pyogenes mefA. Nature of the data set: MIC, microtiter broth dilution, S. pyogenes mefA isolates. It is filed as cell-based, Streptococcus pyogenes. The conditions noted are these: for MIC50 / MIC90: Streptococcus pyogenes.
Data set [1] relates to H. influenzae Telithromycin (intermediate). Nature of the data set: MIC, microtiter broth dilution, telithromycin-intermediate H. influenzae. It is filed as cell-based, Haemophilus influenzae. Conditions: for MIC50 / MIC90: Haemophilus influenzae.
Another data set concerns S. pneumoniae emB/mefA. Nature of the data set: MIC, microtiter broth dilution, S. pneumoniae ermB/mefA isolates. The data set is classed as cell-based, Streptococcus pneumoniae. The conditions noted are these: for MIC50 / MIC90: Streptococcus pneumoniae.
The subject of data set [2] is H. influenzae Telithromycin (susceptible). Nature of the data set: MIC, microtiter broth dilution, telithromycin-susceptible H. influenzae. It is filed as cell-based, Haemophilus influenzae. The conditions noted are these: for MIC50 / MIC90: Haemophilus influenzae.
Data set [3] can be described thus: HLM ER (human liver microsomes extraction ratio). The data set is classed as in vitro ADME. Conditions: 1 μM compound, NADPH, 37° C., <0.32 is lower limit of assay. The procedure:
HLM ER: (human liver microsomes extraction ratio). This assay measures clearance of compound over time in the human liver microsome system due to NADPH-dependent oxidative metabolism. […] Assay Procedure: […] The reaction mixture was pre-incubated at 37° C. for 5 minutes before adding betanicotinamide adenine dinucleotide phosphate—reduced tetrasodium salt (NADPH) (1.0 mM). Aliquots of the incubation mixture were removed at 0, 5, 10, 20, 30 and 45 minutes. The aliquots were quenched in acetonitrile containing internal standard. Samples were centrifuged and the resulting supernatant analyzed by liquid chromatography/mass spectrometry (LC/MS/MS), with a Sciex API4000 using multiple reaction monitoring optimized for each test compound. […] The first order disappearance rate constant was determined for each incubation by plotting natural log(LN) substrate concentration (peak area ratio, drug/internal standard) against incubation time and determining the slope of the regression line (k), using data where an accurate first order decay curve could be obtained. Predicted hepatic clearances (CLH) and extraction ratios were calculated according to the following equations: […] where the following constants were: Liver Weight=21 g/kg [human] Microsomal Protein in Incubation=1.52 mg/mL Liver Protein=45 mg/g [human] Liver Blood Flow (QH)=20 mL/min/kg [human]

A further data set deals with CYP3A (Homo sapiens, UniProt P08684). Nature of the data set: CYP3A time-dependent inhibition in human liver microsomes (midazolam probe). The conditions noted are these: pooled human liver microsomes, pH 7.4, probe midazolam (30 μM, 1'-hydroxymidazolam formation). (Liver microsomes are vesicles of endoplasmic reticulum, rich in cytochrome P450 enzymes.)
The subject of another data set is L. pneumophila. Nature of the data set: microbe, parasite or virus in culture. It is filed as cell-based, Legionella pneumophila. Conditions: for MIC Range: L. pneumophila, n=10 isolates; for MIC50 / MIC90: Legionella pneumophila.
Setting [4] is: M. catarrhalis, n=30 isolates, read-out: MIC90.
The mark [5] stands for this setting: S. pneumoniae ermB, n=34 isolates, read-out: MIC50.
The mark [6] stands for this setting: S. pneumoniae ermB, n=34 isolates, read-out: MIC90.
Where [7] appears, read: S. pneumoniae mefA, n=39 isolates.
Setting [8] is: S. pneumoniae mefA, n=39 isolates, read-out: MIC90.
[9] abbreviates: S. pyogenes mefA, n=23 isolates.
Setting [10] is: S. pyogenes mefA, n=23 isolates, read-out: MIC50.
Where [11] appears, read: S. pyogenes mefA, n=23 isolates, read-out: MIC90.
Setting [12] is: H. influenzae telithromycin (intermediate), n=12 isolates.
The mark [13] stands for this setting: H. influenzae telithromycin (intermediate), n=12 isolates, read-out: MIC50.
[14] abbreviates: H. influenzae telithromycin (intermediate), n=12 isolates, read-out: MIC90.
Setting [15] is: S. pneumoniae emB/mefA, n=45 isolates, read-out: MIC50.
[16] abbreviates: S. pneumoniae emB/mefA, n=45 isolates, read-out: MIC90.
Where [17] appears, read: H. influenzae telithromycin (susceptible), n=82 isolates.
Where [18] appears, read: H. influenzae telithromycin (susceptible), n=82 isolates, read-out: MIC50.
Where [19] appears, read: H. influenzae telithromycin (susceptible), n=82 isolates, read-out: MIC90.
Where [20] appears, read: S. pneumoniae ermB, n=34 isolates.
The mark [21] stands for this setting: S. pneumoniae emB/mefA, n=45 isolates.

≈ marks a conversion by molar mass, not a printed value. Where a name gives a salt, the structure may show the parent alone. Read-outs that look alike come from different tables or passages of the source. A value given as a limit tells only on which side of the number the result lay.

Broadly, the kinact is the maximal first-order rate at which the target is inactivated.

CYP3A, sequence (P08684 2-503): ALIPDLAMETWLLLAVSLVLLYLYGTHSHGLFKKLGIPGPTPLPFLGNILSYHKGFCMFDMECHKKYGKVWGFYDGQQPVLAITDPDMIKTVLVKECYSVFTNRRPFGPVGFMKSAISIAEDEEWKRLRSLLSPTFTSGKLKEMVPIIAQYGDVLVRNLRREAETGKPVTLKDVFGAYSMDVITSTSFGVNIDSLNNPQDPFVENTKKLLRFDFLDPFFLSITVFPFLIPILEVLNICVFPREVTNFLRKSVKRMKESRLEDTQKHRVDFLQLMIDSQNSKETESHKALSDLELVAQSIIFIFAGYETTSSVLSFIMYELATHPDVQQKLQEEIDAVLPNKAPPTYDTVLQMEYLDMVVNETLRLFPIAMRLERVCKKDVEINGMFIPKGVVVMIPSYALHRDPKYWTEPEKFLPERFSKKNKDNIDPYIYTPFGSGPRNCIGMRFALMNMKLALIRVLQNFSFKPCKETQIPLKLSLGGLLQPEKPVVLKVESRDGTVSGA

Take `CC[C@H]1OC(=O)[C@H](C)[C@@H](O[C@H]2C[C@@](C)(OC)[C@@H](O)[C@H](C)O2)[C@H](C)[C@@H](O[C@@H]2O[C@H](C)C[C@H](N(C)C)[C@H]2O)[C@](C)(O)C[C@@H](C)C(=O)[C@H](C)[C@@H](O)[C@]1(C)O` [erythromycin]: the “MIC Range” value against M. catarrhalis (M. catarrhalis, n=30 isolates) lay within 0.03 to 1 µg/mL; in the data set with S. pneumoniae mefA (setting [7]), 2 to 16 µg/mL; in the data set with S. pyogenes mefA (setting [9]), 8 to 32 µg/mL; in data set [1] (setting [12]) it was 8 to 16 µg/mL; in [2] (setting [17]), 1 to 16 µg/mL. The MIC50 in the data set on M. catarrhalis (M. catarrhalis, n=30 isolates, read-out: MIC50) is 0.25 µg/mL (≈ 0.341 µM); in the data set on S. pneumoniae ermB (setting [5]) it was above 64 µg/mL; in the data set with S. pneumoniae mefA (S. pneumoniae mefA, n=39 isolates, read-out: MIC50), 8 µg/mL (≈ 10.9 µM); in the data set on S. pyogenes mefA (setting [10]) it was 8 µg/mL (≈ 10.9 µM); in data set [1] (setting [13]) it was 16 µg/mL (≈ 21.8 µM); in the data set with S. pneumoniae emB/mefA (setting [15]), above 64 µg/mL. Also, in data set [2] (setting [18]), the MIC50 is 8 µg/mL (≈ 10.9 µM). Also, the MIC90 in the data set on M. catarrhalis (setting [4]) was 0.25 µg/mL (≈ 0.341 µM); in the data set with S. pneumoniae ermB (setting [6]), above 64 µg/mL; in the data set with S. pneumoniae mefA (setting [8]), 16 µg/mL (≈ 21.8 µM); in the data set on S. pyogenes mefA (setting [11]), 16 µg/mL (≈ 21.8 µM); in [1] (setting [14]), 16 µg/mL (≈ 21.8 µM); in the data set with S. pneumoniae emB/mefA (setting [16]), above 64 µg/mL. The MIC90 in data set [2] (setting [19]) came out at 16 µg/mL (≈ 21.8 µM).

In the case of `CC[C@H]1OC(=O)[C@H](C)C(=O)[C@H](C)[C@@H](O[C@@H]2O[C@H](C)C[C@H](N(C)C)[C@H]2O)[C@](C)(OC)C[C@@H](C)C(=O)[C@H](C)[C@H]2N(C3CN(Cc4c(O)cnc5cccnc45)C3)C(=O)O[C@]12C` [Example 1, 3-Descladinosyl-11,12-dideoxy-6-O-methyl-3-oxo-12,11-(oxycarbonyl-(1-((3-hydroxy-[1,5]-naphthyridin-4-yl)methyl)-azetidin-3-yl)-imino)-erythromycin A Fumarate], the “MIC Range” value in the data set on M. catarrhalis (M. catarrhalis, n=30 isolates) is 0.008 to 0.25 µg/mL; in the data set on S. pneumoniae ermB (setting [20]) it was “≦0.0625-2 μg/mL”; in the data set on S. pneumoniae mefA (setting [7]) it was “≦0.06-1 μg/mL”; against L. pneumophila it was 0.008 to 0.03 µg/mL; in the data set with S. pyogenes mefA (setting [9]), 0.5 to 1 µg/mL; in data set [1] (setting [12]), 4 to 8 µg/mL. Besides, the “MIC Range” value in the data set with S. pneumoniae emB/mefA (setting [21]) is “≦0.0625-1 μg/mL”; in data set [2] (setting [17]), 1 to 8 µg/mL. In addition, the MIC50 in the data set with M. catarrhalis is 0.03 µg/mL; against S. pneumoniae ermB, at most 0.0625 µg/mL; against S. pneumoniae mefA it was 0.125 µg/mL; with L. pneumophila it was 0.016 µg/mL; against S. pyogenes mefA it was 0.5 µg/mL; in data set [1] it was 4 µg/mL. Also, the results for the MIC50 (in the data set with S. pneumoniae emB/mefA; in [2]) were 0.5 µg/mL and 2 µg/mL, respectively. Moreover, the MIC90 was found to be 0.06 µg/mL against M. catarrhalis; 1 µg/mL against S. pneumoniae ermB; 0.5 µg/mL against S. pneumoniae mefA; 0.03 µg/mL with L. pneumophila; 1 µg/mL against S. pyogenes mefA; 8 µg/mL in [1]. Besides, the MIC90 in the data set on S. pneumoniae emB/mefA is 1 µg/mL; in [2] it was 4 µg/mL. In addition, the “HLM ER” value in data set [3] was below 0.32. Besides, on CYP3A, the Ki turned out to be 24 µM. Also, at CYP3A, the kinact was 0.0004 s⁻¹.

As to `CC1(C)S[C@@H]2[C@H](NC(=O)[C@H](N)c3ccc(O)cc3)C(=O)N2[C@H]1C(=O)O` [amoxicillin], in the data set with S. pyogenes mefA (setting [9]), the “MIC Range” value is 0.004 to 0.03 µg/mL. Also, the MIC50 with S. pyogenes mefA (setting [10]) stood at 0.008 µg/mL (≈ 0.0219 µM). Moreover, in the data set with S. pyogenes mefA (setting [11]), the MIC90 was found to be 0.016 µg/mL (≈ 0.0438 µM).

As to `CC[C@H]1OC(=O)[C@H](C)C(=O)[C@H](C)[C@@H](O[C@@H]2O[C@H](C)C[C@H](N(C)C)[C@H]2O)[C@](C)(OC)C[C@@H](C)C(=O)[C@H](C)[C@H]2N(CCCCn3cnc(-c4cccnc4)c3)C(=O)O[C@]12C` [telithromycin], the “MIC Range” value in the data set on M. catarrhalis (M. catarrhalis, n=30 isolates) is 0.006 to 0.5 µg/mL; in the data set with S. pneumoniae ermB (setting [20]), “≦0.0625-1 μg/mL”; with S. pneumoniae mefA (setting [7]), “≦0.06-0.5 μg/mL”; in the data set with L. pneumophila, 0.016 to 0.03 µg/mL; against S. pyogenes mefA (setting [9]), 0.25 to 2 µg/mL; in [1] (setting [12]), 8 µg/mL (≈ 9.85 µM). Besides, the “MIC Range” value is “≦0.0625-1 μg/mL” against S. pneumoniae emB/mefA (setting [21]) and 0.25 to 4 µg/mL in [2] (setting [17]). Also, the MIC50 in the data set on M. catarrhalis is 0.125 µg/mL (≈ 0.154 µM); in the data set with S. pneumoniae ermB (setting [5]), at most 0.0625 µg/mL; in the data set on S. pneumoniae mefA, 0.125 µg/mL (≈ 0.154 µM); with L. pneumophila, 0.016 µg/mL (≈ 0.0197 µM); with S. pyogenes mefA (setting [10]), 0.5 µg/mL (≈ 0.616 µM); in data set [1] (setting [13]) it was 8 µg/mL (≈ 9.85 µM). Moreover, the MIC50 with S. pneumoniae emB/mefA (setting [15]) was 0.5 µg/mL (≈ 0.616 µM); in data set [2] (setting [18]) it was 1 µg/mL (≈ 1.23 µM). Also, the MIC90 in the data set on M. catarrhalis (setting [4]) worked out at 0.25 µg/mL (≈ 0.308 µM); with S. pneumoniae ermB (setting [6]), 0.5 µg/mL (≈ 0.616 µM); in the data set on S. pneumoniae mefA (setting [8]), 0.5 µg/mL (≈ 0.616 µM); in the data set on L. pneumophila it was 0.016 µg/mL (≈ 0.0197 µM); in the data set with S. pyogenes mefA (setting [11]), 0.5 µg/mL (≈ 0.616 µM); in [1] (setting [14]) it was 8 µg/mL (≈ 9.85 µM). Further, the MIC90 amounted to 0.5 µg/mL (≈ 0.616 µM) in the data set with S. pneumoniae emB/mefA (setting [16]) and 4 µg/mL (≈ 4.93 µM) in data set [2] (setting [19]).

As to `CC[C@H]1OC(=O)[C@H](C)[C@@H](O[C@H]2C[C@@](C)(OC)[C@@H](O)[C@H](C)O2)[C@H](C)[C@@H](O[C@@H]2O[C@H](C)C[C@H](N(C)C)[C@H]2O)[C@](C)(O)C[C@@H](C)CN(C)[C@H](C)[C@@H](O)[C@]1(C)O` [azithromycin], in the data set with L. pneumophila, the “MIC Range” value lay in the range of 0.03 to 0.06 µg/mL, the MIC50 is 0.06 µg/mL (≈ 0.0801 µM) and the MIC90 came out at 0.06 µg/mL (≈ 0.0801 µM).
